In article PMC6401477, “Quorum Sensing Signal Selectivity and the Potential for Interspecies Cross Talk” (mBio, 2019):
Several values for one entry are separate records, joined by “and”; a condition that tells them apart may be missing. Equal values may be shown once. Read-outs that look alike come from different tables or passages of the source.

Legend:
BtaR1 [1] = target: T1, BtaR1 (Burkholderia thailandensis, UniProt Q2T543); assay: cell-based; parameters: species or system B. thailandensis
T1 sequence (Q2T543 1-239): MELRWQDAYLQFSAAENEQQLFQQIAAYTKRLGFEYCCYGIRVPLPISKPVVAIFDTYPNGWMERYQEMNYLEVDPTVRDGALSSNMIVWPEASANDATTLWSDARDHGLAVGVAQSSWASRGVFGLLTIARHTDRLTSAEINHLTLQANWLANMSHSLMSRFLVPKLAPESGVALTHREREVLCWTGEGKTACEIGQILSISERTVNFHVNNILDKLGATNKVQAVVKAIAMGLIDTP

LuxR = target: T2, LuxR (Aliivibrio fischeri, UniProt P12746); assay: cell-based; conditions: V. fischeri MJ215, luminescence; read-out: EC50 LuxR in native host
T2 construct: endogenous in cells; host or cells: V. fischeri MJ215
T2 sequence (P12746 1-250): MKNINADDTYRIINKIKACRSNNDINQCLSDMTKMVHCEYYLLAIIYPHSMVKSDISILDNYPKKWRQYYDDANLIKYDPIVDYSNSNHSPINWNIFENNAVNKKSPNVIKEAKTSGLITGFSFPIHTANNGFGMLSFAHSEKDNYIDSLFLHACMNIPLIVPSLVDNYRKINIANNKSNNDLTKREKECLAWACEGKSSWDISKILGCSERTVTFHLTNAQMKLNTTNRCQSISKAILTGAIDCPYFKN

CviR = target: T3, CviR (Chromobacterium violaceum, UniProt D3W065); assay: cell-based; conditions: C. violaceum CV026, violacein; read-out: EC50 CviR in native host
T3 construct: Violacein was used as a measure of CviR activity in C. violaceum (CV026); endogenous in cells; host or cells: C. violaceum CV026

QscR [2] = target: T4, QscR (Pseudomonas aeruginosa, UniProt G3XD77); assay: cell-based; conditions: P. aeruginosa PAO-SC4 (pPROBE-PPA1897); read-out: EC50 QscR in native host
T4 construct: expressed in transfected cells; host or cells: E. coli 5α (DH5α) with pJNQ and pPROBE-PPA1897
T4 sequence (G3XD77 1-237): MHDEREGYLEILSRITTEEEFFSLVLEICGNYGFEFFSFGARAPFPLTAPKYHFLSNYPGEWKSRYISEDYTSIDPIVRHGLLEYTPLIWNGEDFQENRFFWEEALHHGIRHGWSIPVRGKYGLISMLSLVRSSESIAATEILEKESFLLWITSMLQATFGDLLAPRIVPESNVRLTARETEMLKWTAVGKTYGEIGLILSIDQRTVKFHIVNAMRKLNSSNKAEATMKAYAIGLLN

BtaR1 [3] = target: T1, BtaR1; assay: cell-based; parameters: species or system B. thailandensis; remark: listed apart in the source
BtaR2 [4] = target: T5, BtaR2 (Burkholderia thailandensis, UniProt Q2T5X2); assay: cell-based; parameters: species or system B. thailandensis
T5 sequence (Q2T5X2 1-234): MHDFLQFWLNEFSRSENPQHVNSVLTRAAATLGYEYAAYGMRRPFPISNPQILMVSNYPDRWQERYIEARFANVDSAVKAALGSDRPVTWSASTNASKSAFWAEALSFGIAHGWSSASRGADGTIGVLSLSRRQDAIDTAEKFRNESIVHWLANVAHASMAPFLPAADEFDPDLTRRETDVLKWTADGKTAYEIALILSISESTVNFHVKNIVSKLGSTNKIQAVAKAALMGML

LasR [5] = target: T6, LasR (Pseudomonas aeruginosa, UniProt P25084); assay: cell-based; parameters: species or system P. aeruginosa; conditions: receptor expressed in E. coli (DH5α), arabinose-induced
T6 construct: expressed in transfected cells; host or cells: E. coli 5α (DH5α) with pJNL and pPROBE-PrsaL
T6 sequence (P25084 1-239): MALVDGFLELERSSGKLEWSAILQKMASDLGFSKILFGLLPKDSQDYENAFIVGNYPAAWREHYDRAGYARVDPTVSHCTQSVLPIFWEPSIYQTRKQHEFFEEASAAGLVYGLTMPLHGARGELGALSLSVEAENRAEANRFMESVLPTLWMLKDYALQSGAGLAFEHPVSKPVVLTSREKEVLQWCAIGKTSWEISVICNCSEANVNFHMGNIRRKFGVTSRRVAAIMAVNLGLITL

LasR [6] = target: T6, LasR; assay: cell-based; conditions: P. aeruginosa PAO-SC4 (pPROBE-PrsaL); mean ± SEM, n ≥ 3; read-out: EC50 LasR in native host
QscR [7] = target: T4, QscR; assay: cell-based; parameters: species or system P. aeruginosa; conditions: receptor expressed in E. coli (DH5α), arabinose-induced
RhlR [8] = target: T7, RhlR (Pseudomonas aeruginosa, UniProt P54292); assay: cell-based; format: cell-based, P. aeruginosa; conditions: for EC50: receptor expressed in E. coli (DH5α), arabinose-induced
T7 sequence (P54292 1-241): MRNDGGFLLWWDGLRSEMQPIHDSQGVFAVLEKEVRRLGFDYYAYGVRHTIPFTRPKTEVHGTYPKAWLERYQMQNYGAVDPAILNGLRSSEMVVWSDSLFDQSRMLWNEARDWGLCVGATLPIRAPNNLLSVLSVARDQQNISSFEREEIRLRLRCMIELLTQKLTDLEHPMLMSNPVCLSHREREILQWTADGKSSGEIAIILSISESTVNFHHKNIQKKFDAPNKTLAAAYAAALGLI

RhlR [9] = target: T7, RhlR; assay: cell-based; parameters: species or system P. aeruginosa; conditions: rhlR overexpressed via pJNR in PAO-SC4; mean ± SEM, n ≥ 3; read-out: EC50 overexpression (RhlR)
RhlR [10] = target: T7, RhlR; format: cell-based; conditions: at 1 mM; native P. aeruginosa reporter
BtaR2 [11] = target: T5, BtaR2; assay: cell-based; parameters: species or system B. thailandensis; remark: listed apart in the source

| Structure (SMILES) | EC50 (BtaR1 [1]) | EC50 (LuxR) | EC50 (CviR) | EC50 (QscR [2]) | EC50 (BtaR1 [3]) | EC50 (BtaR2 [4]) | EC50 (LasR [5]) | EC50 (LasR [6]) | EC50 (QscR [7]) | EC50 (RhlR [8]) | effect on RhlR activity in E. coli (RhlR [8]; AHL 100 µM (Fig. S3)) | EC50 (RhlR [9]) | saturation of RhlR activity (RhlR [10]) | EC50 (BtaR2 [11]) |
| --- | --- | --- | --- | --- | --- | --- | --- | --- | --- | --- | --- | --- | --- | --- |
| CCCC(=O)CC(=O)N[C@H]1CCOC1=O [3OC6-HSL] | > 100 µM | 0.272 µM and 0.27 µM | 0.98 ± 0.26 µM | > 100 µM | > 100 µM | > 100 µM |  |  |  |  |  |  |  |  |
| CCCCCC(=O)CC(=O)N[C@H]1CCOC1=O [3OC8-HSL] | 1.1 ± 0.29 µM | 0.49 ± 0.11 µM | 5.47 ± 0.27 µM |  |  |  | 17.4 ± 6.5 µM | 59.1 ± 7.5 µM |  |  |  |  |  |  |
| CCCCCCCC(=O)CC(=O)N[C@H]1CCOC1=O [3OC10-HSL] | 2.83 ± 1.61 µM | 4 ± 0.51 µM | > 100 µM |  |  |  | 0.21 ± 0.06 µM |  | 0.26 ± 0.16 µM | > 100 µM |  |  |  |  |
| CCCCCCCCCC(=O)CC(=O)N[C@H]1CCOC1=O [3OC12-HSL, N-3-oxo-dodecanoyl-L-homoserine lactone] |  | 7.1 ± 2 µM | > 100 µM |  |  |  |  |  |  | > 100 µM | does not affect |  |  |  |
| CCCCCCCCCCCC(=O)CC(=O)N[C@H]1CCOC1=O [3OC14-HSL, N-3-oxotetradecanoyl-L-homoserine lactone] | 1.26 ± 0.25 µM | > 100 µM | > 100 µM |  | > 100 µM |  | 0.0125 ± 0.0045 µM | 2.35 ± 0.66 µM |  | > 100 µM |  |  |  |  |
| CCCCCCCCCCCCCC(=O)CC(=O)N[C@H]1CCOC1=O [3OC16-HSL] | 1.37 ± 0.27 µM | > 100 µM | > 100 µM | > 100 µM | > 100 µM |  | 0.13 ± 0.03 µM | 7.05 ± 1.88 µM | 0.17 ± 0.07 µM | > 100 µM |  |  |  |  |
| CC(O)CC(=O)N[C@H]1CCOC1=O (stereo partly drawn) [3OHC4-HSL] |  | > 100 µM | > 100 µM | > 100 µM | > 100 µM | 25 ± 2.6 µM | > 100 µM | > 100 µM | > 100 µM | > 100 µM |  |  |  |  |
| CCCC(O)CC(=O)N[C@H]1CCOC1=O (stereo partly drawn) [3OHC6-HSL] | > 100 µM |  |  | > 100 µM | > 100 µM |  | > 100 µM | > 100 µM | > 100 µM | > 100 µM |  |  |  |  |
| CCCCCC(O)CC(=O)N[C@H]1CCOC1=O (stereo partly drawn) [3OHC8-HSL, N-3-hydroxyoctanoyl-L-homoserine lactone] |  | > 100 µM | 21.2 ± 6.6 µM | > 100 µM |  |  |  | > 100 µM | 5.82 ± 1.49 µM | > 100 µM |  |  |  |  |
| CCCCCCCC(O)CC(=O)N[C@H]1CCOC1=O (stereo partly drawn) [3OHC10-HSL] | 1.82 ± 0.07 µM | > 100 µM |  |  |  |  | 7.91 ± 0.45 µM |  | 0.0299 ± 0.0134 µM | > 100 µM |  |  |  |  |
| CCCCCCCCCC(O)CC(=O)N[C@H]1CCOC1=O (stereo partly drawn) [3OHC12-HSL] |  | > 100 µM | > 100 µM | 23.9 ± 9.2 µM |  | 0.0915 ± 0.0252 µM | 1.23 ± 0.86 µM | 48.4 ± 13.2 µM | 0.11 ± 0.05 µM | > 100 µM |  |  |  |  |
| CCCCCCCCCCCC(O)CC(=O)N[C@H]1CCOC1=O (stereo partly drawn) [3OHC14-HSL] | 2.23 ± 0.73 µM | > 100 µM | > 100 µM |  | > 100 µM |  | 0.2 ± 0.02 µM | 2.66 ± 0.68 µM | 0.15 ± 0.04 µM | > 100 µM |  |  |  |  |
| CCCC(=O)N[C@H]1CCOC1=O [C4-HSL, N-butyryl-L-homoserine lactone] |  | > 100 µM | 14.3 ± 3.8 µM | > 100 µM | > 100 µM | > 100 µM | > 100 µM | > 100 µM | > 100 µM | 122 ± 17 µM |  | 12 ± 3.1 µM | not saturated | > 100 µM |
| CCCCCC(=O)N[C@H]1CCOC1=O [C6-HSL] |  |  | 0.0834 ± 0.0245 µM | > 100 µM |  | > 100 µM | > 100 µM | > 100 µM |  | 134 ± 26 µM |  |  |  |  |
| CCCCCCCC(=O)N[C@H]1CCOC1=O [C8-HSL] |  |  | 1.66 ± 0.92 µM | > 100 µM |  |  |  | > 100 µM | 1.9 ± 0.27 µM |  |  |  |  | 13.9 ± 2.1 µM |
| CCCCCCCCCC(=O)N[C@H]1CCOC1=O [C10-HSL, N-decanoyl-L-homoserine lactone] |  | 42 ± 7.6 µM | > 100 µM |  |  |  | 8.67 ± 1.49 µM |  |  | > 100 µM |  |  |  |  |
| CCCCCCCCCCCC(=O)N[C@H]1CCOC1=O [C12-HSL] |  | > 100 µM | > 100 µM |  |  |  | 0.66 ± 0.07 µM |  |  | > 100 µM |  |  |  |  |
| CCCCCCCCCCCCCC(=O)N[C@H]1CCOC1=O [C14-HSL] | 0.97 ± 0.35 µM | > 100 µM | > 100 µM | > 100 µM |  |  | 0.36 ± 0.13 µM |  | 0.0896 ± 0.0201 µM | > 100 µM |  |  |  |  |
| CCCCCCCCCCCCCCCC(=O)N[C@H]1CCOC1=O [C16-HSL] |  | > 100 µM | > 100 µM | > 100 µM |  | > 100 µM |  | > 100 µM | > 100 µM | > 100 µM |  |  |  | > 100 µM |
